Experiments:
[1] = test system: pentagastrin-stimulated acid secretion of the perfused rat stomach; assay: Secretion-inhibiting action on the perfused rat stomach (pentagastrin-stimulated acid secretion, intraduodenal administration in vivo); details: anesthetized female CD rat, dose 1.0 μmol/kg i.d.
Text: Testing of the Secretion-inhibiting Action on the Perfused Rat Stomach
In Table A which follows, the influence of the compounds according to the invention on the pentagastrin-stimulated acid secretion of the perfused rat stomach after intraduodenal administration in vivo is shown.
The abdomen of anesthetized rats (CD rat, female, 200-250 g; 1.5 g/kg i.m. urethane) was opened after tracheotomy by a median upper abdominal incision and a PVC catheter was fixed transorally in the esophagus and another via the pylorus such that the ends of the tubes just projected into the gastric lumen. The catheter leading from the pylorus led outward into the right abdominal wall through a side opening.
After thorough rinsing (about 50-100 ml), warm (37° C.) physiological NaCl solution was continuously passed through the stomach (0.5 ml/min, pH 6.8-6.9; Braun-Unita I). The pH (pH meter 632, glass electrode EA 147; φ=5 mm, Metrohm) and, by titration with a freshly prepared 0.01N NaOH solution to pH 7 (Dosimat 665 Metrohm), the secreted HCl were determined in the effluent in each case collected at an interval of 15 minutes.
The gastric secretion was stimulated by continuous infusion of […] (=1.65 ml/h) of i.v. pentagastrin (left femoral vein) about 30 min after the end of the operation (i.e. after determination of 2 preliminary fractions). […]

melting point	Compound	Inhibition of acid secretion [1]
214.4 °C	CCc1cccc(C)c1CNc1cc(C(=O)OC)cn2c(C)nnc12 [Example 1, 8-(2-Ethyl-6-methyl-benzylamino)-3-methyl[1,2,4]triazolo[4,3-a]pyridine-6-carboxylic acid methyl ester]	
201.3 °C	CCc1cccc(C)c1CNc1cc(C(=O)N(C)C)cn2c(C)nnc12 [Example 3, 8-(2-Ethyl-6-methylbenzylamino)-N,N,3-trimethyl[1,2,4]triazolo[4,3-a]pyridine-6-carboxamide]	>30%
	CCc1cccc(C)c1CNc1cc(C(=O)NCCOC)cn2c(C)nnc12 [Example 4, 8-(2-Ethyl-6-methylbenzylamino)-N-(2-methoxyethyl)-3-methyl[1,2,4]triazolo-[4,3-a]pyridine-6-arboxamide]	>30%
328.1 °C	CCc1cccc(C)c1CNc1cc(C(=O)O)cn2c(C)nnc12 [Example 2, 8-(2-Ethyl-6-methyl-benzylamino)-3-methyl[1,2,4]triazolo[4,3-a]pyridine-6-carboxylic acid]	
